Assays:
Type in all cases: in vivo, C57BL/6 mice
chicken Ovalbumin (pOVA) [1] = test: Anti-OVA antibody response, MTX given with pOVA (Example 17); settings: 200 μg MTX i.p. days 1-3, 7-9, 14-16; 5 weekly i.v. injections of 25 μg pOVA; FIG. 2
Procedure: (§1) C57BL/6 age-matched (5-6 weeks) female mice were injected 5 times intravenously in the tail vein with weekly injections of 25 μg of an immunogenic, particulate form of chicken Ovalbumin (pOVA). One group of animals received 3 intraperitoneal injections of 200 μg of MTX along with the 3 first antigen injections the same day and the 2 following days. The untreated group received only antigen whereas the treated group received 9 injections total of MTX i.p. (days 1-3, 7-9, 14-16). On the 4th and 5th injection days all animals received 20 μg of keyhole limpet hemocyanine (KLH) subcutaneously in the hind limbs admixed to 2 μg of CpG in addition to the i.v. injection of pOVA.
(§2) The anti-KLH and anti-OVA antibody responses were monitored in the blood in these animals at different time points.

[2] = test system: keyhole limpet hemocyanine (KLH); test: Anti-KLH antibody response, KLH+CpG given after MTX treatment (Example 17); settings: 20 μg KLH + 2 μg CpG s.c. injected after the MTX treatments (from d21); FIG. 2
Procedure: as §1, §2

[3] = test system: keyhole limpet hemocyanin (KLH); test: Anti-KLH IgG titers, MTX given with KLH i.v. (Example 18); settings: MTX i.p. days 1-3, 7-9, 14-16; 200 μg KLH i.v. weekly, 5 injections; FIG. 3
Procedure: (§3) In order to test whether multiple injections of MTX can lead to the establishment of immunological tolerance, C57BL/6 age-matched (5-6 weeks) female mice were injected intravenously in the tail vein with weekly injections of 200 μg of keyhole limpet hemocyanin (KLH) and subcutaneously in the hind limbs with 25 μg of a particulate form of chicken Ovalbumin (pOVA) admixed to 2 μg of CpG oligodeoxynucleotides (ODN). With the first three antigen injections, a group of animals received 3 intraperitoneal injections of MTX on the same day and the following 2 days. All animals received 5 injections of antigen (d0, 7, 14, 21 and 28) and one group received 9 additional injections of MTX i.p. (days 1-3, 7-9, 14-16).
(§4) The anti-KLH and anti-OVA responses were monitored in the blood in these animals at different time points.

chicken Ovalbumin (pOVA) [4] = test: Anti-OVA IgG titers, MTX given with pOVA+CpG s.c. (Example 18); settings: MTX i.p. days 1-3, 7-9, 14-16; 25 μg pOVA + 2 μg CpG s.c. weekly, 5 injections; FIG. 3
Procedure: as §3, §4

CN(Cc1cnc2nc(N)nc(N)c2n1)c1ccc(C(=O)N[C@@H](CCC(=O)O)C(=O)O)cc1 [MTX, Methotrexate]
anti-OVA antibody response (chicken Ovalbumin (pOVA) [1]): blocked the antibody response and only minimal titers were detected | anti-KLH response [2]: robust anti-KLH response could be detected in all groups | anti-KLH IgG antibody titers [3]: blocked both responses and the animals showed low titers | anti-OVA IgG antibody titers (chicken Ovalbumin (pOVA) [4]): blocked both responses and the animals showed low titers
